Data published in paper PMC5290327, “SC83288 is a clinical development candidate for the treatment of severe malaria” (Nature Communications, 2017).

Key:
Assay in all cases: KINOMEscan
Type in all cases: binding
Conditions in all cases: read-out: Remaining enzyme activity
EPHA7 = target: T1, EPHA7 (Homo sapiens, UniProt Q15375)
T1 construct: purchased Ambit (DiscoverX) KINOMEscan; Cerep
In short: (§1)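 Immobilized ligand beads, biotin-blocked and washed in SeaBlock buffer with BSA, Tween 20 and DTT, are incubated with DNA-tagged kinase and 10 μM SC81458. Compound occupying the active site lowers bead-bound kinase, which is quantified by qPCR of the tag.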

CAMK2b = target: T2, CAMK2b (Homo sapiens, UniProt Q13554)
T2 construct: purchased Ambit (DiscoverX) KINOMEscan; Cerep
In short: as §1

ERK1 = target: T3, ERK1 (Homo sapiens, UniProt P27361)
T3 construct: purchased Ambit (DiscoverX) KINOMEscan; Cerep
In short: as §1

PDPK1 = target: T4, PDPK1 (Homo sapiens, UniProt O15530)
T4 construct: purchased Ambit (DiscoverX) KINOMEscan; Cerep
In short: as §1

CAMK2d = target: T5, CAMK2d (Homo sapiens, UniProt Q13557)
T5 construct: purchased Ambit (DiscoverX) KINOMEscan; Cerep
In short: as §1

LTK = target: T6, LTK (Homo sapiens, UniProt P29376)
T6 construct: purchased Ambit (DiscoverX) KINOMEscan; Cerep
In short: as §1

SIK = target: T7, SIK (Homo sapiens, UniProt P57059)
T7 construct: purchased Ambit (DiscoverX) KINOMEscan; Cerep
In short: as §1

ABL1(Y253F) = target: T8, ABL1(Y253F) (Homo sapiens, UniProt P00519, Y253F)
T8 construct: purchased Ambit (DiscoverX) KINOMEscan; Cerep
In short: as §1

PIM2 = target: T9, PIM2 (Homo sapiens, UniProt Q9P1W9)
T9 construct: purchased Ambit (DiscoverX) KINOMEscan; Cerep
In short: as §1

MAP3K2 = target: T10, MAP3K2 (Homo sapiens, UniProt Q9Y2U5)
T10 construct: purchased Ambit (DiscoverX) KINOMEscan; Cerep
In short: as §1

BRAF(V600E) = target: T11, BRAF(V600E) (Homo sapiens, UniProt P15056, V600E)
T11 construct: purchased Ambit (DiscoverX) KINOMEscan; Cerep
In short: as §1

INSR = target: T12, INSR (Homo sapiens, UniProt P06213)
T12 construct: purchased Ambit (DiscoverX) KINOMEscan; Cerep
In short: as §1

RIOK2 = target: T13, RIOK2 (Homo sapiens, UniProt Q9BVS4)
T13 construct: purchased Ambit (DiscoverX) KINOMEscan; Cerep
In short: as §1

JNK2 = target: T14, JNK2 (Homo sapiens, UniProt P45984)
T14 construct: purchased Ambit (DiscoverX) KINOMEscan; Cerep
In short: as §1

p38-delta = target: T15, p38-delta (Homo sapiens, UniProt O15264)
T15 construct: purchased Ambit (DiscoverX) KINOMEscan; Cerep
In short: as §1

IGF1R = target: T16, IGF1R (Homo sapiens, UniProt P08069)
T16 construct: purchased Ambit (DiscoverX) KINOMEscan; Cerep
In short: as §1

MST2 = target: T17, MST2 (Homo sapiens, UniProt Q13188)
T17 construct: purchased Ambit (DiscoverX) KINOMEscan; Cerep
In short: as §1

EGFR(L858R) = target: T18, EGFR(L858R) (Homo sapiens, UniProt P00533, L858R)
T18 construct: purchased Ambit (DiscoverX) KINOMEscan; Cerep
In short: as §1

DYRK2 = target: T19, DYRK2 (Homo sapiens, UniProt Q92630)
T19 construct: purchased Ambit (DiscoverX) KINOMEscan; Cerep
In short: as §1

AXL = target: T20, AXL (Homo sapiens, UniProt P30530)
T20 construct: purchased Ambit (DiscoverX) KINOMEscan; Cerep
In short: as §1

CDKL3 = target: T21, CDKL3 (Homo sapiens, UniProt Q8IVW4)
T21 construct: purchased Ambit (DiscoverX) KINOMEscan; Cerep
In short: as §1

MYLK = target: T22, MYLK (Homo sapiens, UniProt Q15746)
T22 construct: purchased Ambit (DiscoverX) KINOMEscan; Cerep
In short: as §1

ULK3 = target: T23, ULK3 (Homo sapiens, UniProt Q6PHR2)
T23 construct: purchased Ambit (DiscoverX) KINOMEscan; Cerep
In short: as §1

PIK3CA(E542K) = target: T24, PIK3CA(E542K) (Homo sapiens, UniProt P42336, E542K)
T24 construct: purchased Ambit (DiscoverX) KINOMEscan; Cerep
In short: as §1

CDK7 = target: T25, CDK7 (Homo sapiens, UniProt P50613)
T25 construct: purchased Ambit (DiscoverX) KINOMEscan; Cerep
In short: as §1

TLK1 = target: T26, TLK1 (Homo sapiens, UniProt Q9UKI8)
T26 construct: purchased Ambit (DiscoverX) KINOMEscan; Cerep
In short: as §1

EGFR(E46-A750del) = target: T27, EGFR(E46-A750del) (Homo sapiens, UniProt P00533, DEL746-750)
T27 construct: purchased Ambit (DiscoverX) KINOMEscan; Cerep
In short: as §1

RET = target: T28, RET (Homo sapiens, UniProt P07949)
T28 construct: purchased Ambit (DiscoverX) KINOMEscan; Cerep
In short: as §1

TAOK1 = target: T29, TAOK1 (Homo sapiens, UniProt Q7L7X3)
T29 construct: purchased Ambit (DiscoverX) KINOMEscan; Cerep
In short: as §1

BRK = target: T30, BRK (Homo sapiens, UniProt Q13882)
T30 construct: purchased Ambit (DiscoverX) KINOMEscan; Cerep
In short: as §1

FYN = target: T31, FYN (Homo sapiens, UniProt P06241)
T31 construct: purchased Ambit (DiscoverX) KINOMEscan; Cerep
In short: as §1

[1] = target: T32, RPS6KA2(Kin.Dom.1-N-term) (Homo sapiens, UniProt Q15349)
T32 construct: RPS6KA2(Kin.Dom.1-N-term); purchased Ambit (DiscoverX) KINOMEscan; Cerep
In short: as §1

CDK3 = target: T33, CDK3 (Homo sapiens, UniProt Q00526)
T33 construct: purchased Ambit (DiscoverX) KINOMEscan; Cerep
In short: as §1

T25 sequence (P50613 whole entry): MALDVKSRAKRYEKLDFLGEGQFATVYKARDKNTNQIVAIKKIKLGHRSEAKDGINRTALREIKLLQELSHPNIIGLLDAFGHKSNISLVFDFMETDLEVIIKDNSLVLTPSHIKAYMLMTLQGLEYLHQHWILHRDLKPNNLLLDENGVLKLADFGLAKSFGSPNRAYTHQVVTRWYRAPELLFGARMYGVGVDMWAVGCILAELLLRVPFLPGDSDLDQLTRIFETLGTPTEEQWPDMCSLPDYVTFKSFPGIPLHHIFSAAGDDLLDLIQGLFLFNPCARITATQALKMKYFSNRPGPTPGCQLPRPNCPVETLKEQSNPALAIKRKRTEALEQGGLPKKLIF
T20 sequence (P30530 26-894): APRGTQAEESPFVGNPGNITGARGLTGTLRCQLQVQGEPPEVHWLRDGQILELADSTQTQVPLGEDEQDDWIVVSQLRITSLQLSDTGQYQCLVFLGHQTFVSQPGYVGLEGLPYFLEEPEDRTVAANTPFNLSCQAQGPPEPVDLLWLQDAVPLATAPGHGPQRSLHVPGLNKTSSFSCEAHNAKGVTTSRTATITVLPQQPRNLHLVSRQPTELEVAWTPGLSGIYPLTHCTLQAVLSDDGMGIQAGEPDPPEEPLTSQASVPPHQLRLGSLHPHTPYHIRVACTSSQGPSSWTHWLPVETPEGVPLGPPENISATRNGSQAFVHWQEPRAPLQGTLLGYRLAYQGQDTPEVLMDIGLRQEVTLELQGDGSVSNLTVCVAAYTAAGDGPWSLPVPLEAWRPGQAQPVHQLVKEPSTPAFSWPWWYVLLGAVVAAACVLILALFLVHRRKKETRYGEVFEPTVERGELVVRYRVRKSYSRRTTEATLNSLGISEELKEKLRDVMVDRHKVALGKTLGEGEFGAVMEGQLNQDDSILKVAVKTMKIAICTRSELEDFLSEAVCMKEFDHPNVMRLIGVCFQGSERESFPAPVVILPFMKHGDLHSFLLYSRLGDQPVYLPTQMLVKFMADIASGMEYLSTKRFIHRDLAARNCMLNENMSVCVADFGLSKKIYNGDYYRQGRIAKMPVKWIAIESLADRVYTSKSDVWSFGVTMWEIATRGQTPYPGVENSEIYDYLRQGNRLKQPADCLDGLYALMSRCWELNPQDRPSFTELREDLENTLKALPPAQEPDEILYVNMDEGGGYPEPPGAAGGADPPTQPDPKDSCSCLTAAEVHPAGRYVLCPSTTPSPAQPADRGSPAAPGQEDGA
T27 sequence (P00533 with tags, fused parts or gaps DEL746-750 limits assumed): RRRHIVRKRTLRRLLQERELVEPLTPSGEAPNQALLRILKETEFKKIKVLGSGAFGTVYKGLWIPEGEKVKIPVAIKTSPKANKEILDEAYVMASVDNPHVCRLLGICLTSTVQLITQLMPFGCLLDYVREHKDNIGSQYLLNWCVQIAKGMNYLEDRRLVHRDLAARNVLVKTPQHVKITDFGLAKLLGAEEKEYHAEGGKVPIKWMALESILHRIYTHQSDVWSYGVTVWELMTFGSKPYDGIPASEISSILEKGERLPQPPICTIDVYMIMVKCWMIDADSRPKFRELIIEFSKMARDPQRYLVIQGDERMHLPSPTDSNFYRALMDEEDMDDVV
T30 sequence (Q13882 whole entry): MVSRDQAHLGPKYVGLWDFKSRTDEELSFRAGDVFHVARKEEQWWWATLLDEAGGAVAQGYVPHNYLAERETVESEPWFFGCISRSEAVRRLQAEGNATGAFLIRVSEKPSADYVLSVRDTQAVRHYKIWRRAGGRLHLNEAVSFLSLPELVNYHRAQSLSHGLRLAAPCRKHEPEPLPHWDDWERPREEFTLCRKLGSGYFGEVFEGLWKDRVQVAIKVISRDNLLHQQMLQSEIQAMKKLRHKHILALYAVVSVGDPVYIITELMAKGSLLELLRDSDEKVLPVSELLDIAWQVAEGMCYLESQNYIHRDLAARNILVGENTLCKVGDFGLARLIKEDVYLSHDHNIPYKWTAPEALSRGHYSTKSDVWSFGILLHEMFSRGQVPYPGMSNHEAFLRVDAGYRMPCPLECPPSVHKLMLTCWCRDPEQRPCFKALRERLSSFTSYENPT
T2 sequence (Q13554 whole entry): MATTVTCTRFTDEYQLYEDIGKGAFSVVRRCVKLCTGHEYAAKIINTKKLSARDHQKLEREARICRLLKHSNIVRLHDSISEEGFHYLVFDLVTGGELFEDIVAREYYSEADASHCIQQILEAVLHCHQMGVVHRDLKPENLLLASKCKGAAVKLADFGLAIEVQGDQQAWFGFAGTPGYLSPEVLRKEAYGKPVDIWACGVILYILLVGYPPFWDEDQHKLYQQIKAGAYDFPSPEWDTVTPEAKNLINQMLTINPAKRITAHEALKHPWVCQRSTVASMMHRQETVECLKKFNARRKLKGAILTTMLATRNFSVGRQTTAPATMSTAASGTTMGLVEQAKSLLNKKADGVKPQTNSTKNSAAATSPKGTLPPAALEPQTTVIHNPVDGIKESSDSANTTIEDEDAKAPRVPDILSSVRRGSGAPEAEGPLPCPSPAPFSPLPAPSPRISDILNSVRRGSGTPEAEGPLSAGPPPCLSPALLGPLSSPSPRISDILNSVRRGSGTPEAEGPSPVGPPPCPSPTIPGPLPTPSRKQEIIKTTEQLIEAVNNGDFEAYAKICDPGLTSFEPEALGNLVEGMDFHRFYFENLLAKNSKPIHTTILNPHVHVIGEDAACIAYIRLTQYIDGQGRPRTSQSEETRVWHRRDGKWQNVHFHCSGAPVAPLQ
T23 sequence (Q6PHR2 whole entry): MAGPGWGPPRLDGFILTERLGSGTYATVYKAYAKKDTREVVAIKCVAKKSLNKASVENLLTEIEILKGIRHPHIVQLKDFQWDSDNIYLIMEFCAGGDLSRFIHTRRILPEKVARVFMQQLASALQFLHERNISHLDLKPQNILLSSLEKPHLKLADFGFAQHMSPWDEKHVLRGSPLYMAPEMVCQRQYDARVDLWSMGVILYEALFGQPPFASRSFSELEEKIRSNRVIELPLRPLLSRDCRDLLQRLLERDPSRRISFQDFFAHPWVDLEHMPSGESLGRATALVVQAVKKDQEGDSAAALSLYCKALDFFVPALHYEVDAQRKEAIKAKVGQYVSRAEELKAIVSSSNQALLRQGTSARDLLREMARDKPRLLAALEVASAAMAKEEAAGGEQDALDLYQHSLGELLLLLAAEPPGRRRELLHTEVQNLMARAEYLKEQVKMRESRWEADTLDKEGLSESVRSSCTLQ
T29 sequence (Q7L7X3 whole entry): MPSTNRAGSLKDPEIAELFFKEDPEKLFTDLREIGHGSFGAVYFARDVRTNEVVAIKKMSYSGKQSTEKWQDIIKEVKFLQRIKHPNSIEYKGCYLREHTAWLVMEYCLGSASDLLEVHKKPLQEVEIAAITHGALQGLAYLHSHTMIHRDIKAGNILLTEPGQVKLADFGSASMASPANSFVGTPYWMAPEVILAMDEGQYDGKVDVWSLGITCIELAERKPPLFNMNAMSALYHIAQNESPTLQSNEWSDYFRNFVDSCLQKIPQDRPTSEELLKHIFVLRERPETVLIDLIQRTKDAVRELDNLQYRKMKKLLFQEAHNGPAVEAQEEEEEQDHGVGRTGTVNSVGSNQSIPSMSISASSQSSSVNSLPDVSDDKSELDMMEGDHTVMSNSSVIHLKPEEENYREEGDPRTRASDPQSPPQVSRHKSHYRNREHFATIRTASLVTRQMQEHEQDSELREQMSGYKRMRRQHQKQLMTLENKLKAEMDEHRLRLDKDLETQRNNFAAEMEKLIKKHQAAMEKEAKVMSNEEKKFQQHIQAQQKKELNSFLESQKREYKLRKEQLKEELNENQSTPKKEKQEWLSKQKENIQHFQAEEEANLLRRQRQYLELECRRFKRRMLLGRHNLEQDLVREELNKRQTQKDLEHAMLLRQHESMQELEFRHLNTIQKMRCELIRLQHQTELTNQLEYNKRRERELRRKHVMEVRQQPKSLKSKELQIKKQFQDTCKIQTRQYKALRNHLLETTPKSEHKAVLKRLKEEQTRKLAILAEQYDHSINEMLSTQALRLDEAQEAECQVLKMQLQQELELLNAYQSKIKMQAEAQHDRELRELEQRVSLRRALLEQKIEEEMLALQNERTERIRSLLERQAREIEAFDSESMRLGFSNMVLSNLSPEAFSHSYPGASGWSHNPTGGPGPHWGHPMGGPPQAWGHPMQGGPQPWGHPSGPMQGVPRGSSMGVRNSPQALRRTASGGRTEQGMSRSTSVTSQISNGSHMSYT
T19 sequence (Q92630 whole entry): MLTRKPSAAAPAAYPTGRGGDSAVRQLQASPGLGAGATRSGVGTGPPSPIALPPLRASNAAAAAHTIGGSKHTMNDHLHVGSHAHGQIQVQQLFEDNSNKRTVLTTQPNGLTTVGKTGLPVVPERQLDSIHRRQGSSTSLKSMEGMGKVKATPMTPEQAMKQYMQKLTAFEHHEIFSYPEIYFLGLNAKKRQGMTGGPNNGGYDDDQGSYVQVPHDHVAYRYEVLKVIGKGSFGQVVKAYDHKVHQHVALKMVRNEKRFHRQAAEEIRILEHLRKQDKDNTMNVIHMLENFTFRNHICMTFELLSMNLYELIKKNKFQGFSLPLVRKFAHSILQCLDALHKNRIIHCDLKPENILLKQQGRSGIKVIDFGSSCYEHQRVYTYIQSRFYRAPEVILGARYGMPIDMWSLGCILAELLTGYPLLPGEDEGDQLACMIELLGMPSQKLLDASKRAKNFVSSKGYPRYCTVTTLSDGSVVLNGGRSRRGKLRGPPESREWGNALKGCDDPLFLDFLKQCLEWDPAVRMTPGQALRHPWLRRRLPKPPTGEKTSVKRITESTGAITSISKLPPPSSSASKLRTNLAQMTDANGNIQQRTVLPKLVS
T32 sequence (Q15349 59-318 limits assumed): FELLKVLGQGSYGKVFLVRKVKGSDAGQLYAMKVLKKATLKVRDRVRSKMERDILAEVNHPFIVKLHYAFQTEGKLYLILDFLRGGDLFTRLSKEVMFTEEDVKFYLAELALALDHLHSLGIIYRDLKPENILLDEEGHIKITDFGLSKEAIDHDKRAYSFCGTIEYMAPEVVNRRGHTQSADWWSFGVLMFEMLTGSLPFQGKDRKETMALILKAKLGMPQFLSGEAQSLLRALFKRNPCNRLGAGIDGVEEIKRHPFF

CCCCN1CCN(C(=N)c2cccc(NC(=O)Nc3ccc(S(=O)(=O)NCc4ccc(S(N)(=O)=O)cc4)cc3)c2)CC1 [SC81458, 4-(3-(3-((4-butylpiperazin-1-yl)(imino)methyl)phenyl)ureido)-N-(4-sulfamoylbenzyl) benzenesulfonamide]
remaining binding at 10 µM (EPHA7): 81% | remaining binding at 10 µM (CAMK2b): 100% | remaining binding at 10 µM (ERK1): 99% | remaining binding at 10 µM (PDPK1): 74% | remaining binding at 10 µM (CAMK2d): 90% | remaining binding at 10 µM (LTK): 100% | remaining binding at 10 µM (SIK): 97% | remaining binding at 10 µM (ABL1(Y253F)): 92% | remaining binding at 10 µM (PIM2): 87% | remaining binding at 10 µM (MAP3K2): 100% | remaining binding at 10 µM (BRAF(V600E)): 100% | remaining binding at 10 µM (INSR): 100% | remaining binding at 10 µM (RIOK2): 98% | remaining binding at 10 µM (JNK2): 97% | remaining binding at 10 µM (p38-delta): 89% | remaining binding at 10 µM (IGF1R): 77% | remaining binding at 10 µM (MST2): 100% | remaining binding at 10 µM (EGFR(L858R)): 92% | remaining binding at 10 µM (DYRK2): 100% | remaining binding at 10 µM (AXL): 100% | remaining binding at 10 µM (CDKL3): 98% | remaining binding at 10 µM (MYLK): 95% | remaining binding at 10 µM (ULK3): 73% | remaining binding at 10 µM (PIK3CA(E542K)): 100% | remaining binding at 10 µM (CDK7): 100% | remaining binding at 10 µM (TLK1): 100% | remaining binding at 10 µM (EGFR(E46-A750del)): 96% | remaining binding at 10 µM (RET): 89% | remaining binding at 10 µM (TAOK1): 100% | remaining binding at 10 µM (BRK): 100% | remaining binding at 10 µM (FYN): 100% | remaining binding at 10 µM [1]: 100% | remaining binding at 10 µM (CDK3): 100%
